Measured values taken from PubChem BioAssay AID1963826 (Molecular Pharmacology Branch, DTP, NCI, 2024).

Tested on: 926638-142-R-J1-PDC complex spheroid viability
Assay: Anticancer human tumor 926638-142-R-J1-PDC patient-derived endometrial carcinoma cell line growth inhibition [POLQ]
Settings: for IC50: curve of first compound; for viability, T/C: stronger effect = lower value
Description: Multicellular complex tumor spheroid response to Polymerase (POL) inhibitors (novobiocin, ART-558, RP6685) in combination with a variety of drugs and investigational agents in selected tumor cell lines
The POL inhibitors (novobiocin, ART-558, and RP6685) were evaluated both individually and in combination with standard of care and investigational anticancer small molecules within a complex spheroid model of solid tumors. . Complex spheroids include a stromal component modeled by human endothelial cells (HUVEC) and fibroblasts modeled by human mesenchymal stem cells (MSCs). The concentration ranges selected for each drug and investigational agent were based upon clinically achievable concentrations if the clinical Cmax of the agent was known.
Compounds. The drugs and investigational agents: novobiocin (NSC847541), ART-558 (NSC835418), RP-6685 (NSC848927), peposertib (NSC802822), ceralasertib (NSC780249), elimusertib (NSC800525), camonsertib (NSC841442), AZD-1390 (NSC803789), olaparib (NSC753686), talazoparib (NSC767125), rucaparib (NSC756644), sotorasib (NSC818433), MRTX-1133 (NSC836407), SN-38 (NSC673596), topotecan (NSC609699), epotoside (NSC141540), doxorubicin (NSC123127), gemcitabine (NSC613327), 5-fluorouracil (NSC19893), paclitaxel (NSC125973), vemurafenib (NSC761431), MSA-2 (NSC828583), SN-011 (NSC837082), adavosertib (NSC754352), prexasertib (NSC758257), carboplatin (NSC241240) and oxaliplatin (NSC266046), were obtained from the National Cancer Institute (NCI) Developmental Therapeutics Program Chemical Repository (21). The FDA-approved anticancer drug set is available from the Developmental Therapeutics Program at https://dtp.cancer.gov/organization/dscb/obtaining/. […] The stock solutions were prepared in dimethyl sulfoxide (DMSO, Sigma-Aldrich, St. Louis, MO, cat. D2650), except for the platinum compounds which were prepared in saline (Quality Biological, Gaithersburg, MD, cat. 114-055-101), at 800-fold the tested concentration and stored at -70 degrees C prior to their use. All drugs and investigational agents were tested over a range starting from a high concentration at or near the clinical Cmax and decreasing in half-log increments. If the clinical Cmax for an agent had not been determined, the highest concentration tested was 10 microM, except for SN-38, which was tested at a high concentration of 1 microM.
Cell Culture. All cells were maintained in an incubator at 37 degrees C and 5% CO2 with 95% humidity. The PDC lines were cultured according to standard operating procedures established by the NCI PDMR (https://pdmr.cancer.gov). Table 3 of the manuscript, lists the cell lines along with the number of the three cell types plated to form the mct-spheroids and media for tumor cell growth. After thawing, all PDC lines, except 997537-175-T-J1-PDC and 415267-285-R-J2-PDC, were cultured in Matrigel-coated flasks prepared with a working solution of 1X Ham's F-12 nutrient mix, without supplementation (Thermo Fisher Scientific, cat. 11765054), 100 U/mL penicillin-streptomycin (Thermo Fisher Scientific, cat. 15140122), and 2.5% Matrigel (Corning Inc., Corning, NY, cat. 354248) for the first three passages. The two PDC lines 997537-175-T-J1-PDC and 415267-285-R-J2-PDC were cultured on uncoated flasks. The 857933-349-R-J2-PDC line was cultured in 6C/Colon 1B media containing advanced DMEM/F-12 (Thermo Fisher Scientific, cat. 12634028), 10 mM HEPES (Thermo Fisher Scientific, cat. 15630080), 1X GlutaMAX supplement (Thermo Fisher Scientific, cat. 35050061), 0.1 mg/mL primocin (InvivoGen, San Diego, CA, cat. ant-pm-2), 10% defined fetal bovine serum, heat inactivated (HyClone Laboratories Inc., Logan, UT, cat. SH30070.03HI), 50% L-WRN conditioned media (ATCC, cat. CRL-3276), 1.25 mM N-Acetyl-L-cysteine (Sigma-Aldrich, cat. A9165), 10 mM nicotinamide (Sigma-Aldrich, cat. N0636), 1X B-27 supplement (Thermo Fisher Scientific, cat. 17504044), 1X N-2 supplement (Thermo Fisher Scientific, cat. […]
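Further: spheroids exposed to drugs for one week before readout.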
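Wherever viability, T/C is given: percent viability relative to DMSO vehicle control wells set as 100%.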

CC(=O)O[C@H]1C(=O)[C@@]2(C)[C@H]([C@H](OC(=O)c3ccccc3)[C@]3(O)C[C@H](OC(=O)[C@H](O)[C@@H](NC(=O)c4ccccc4)c4ccccc4)C(C)=C1C3(C)C)[C@]1(OC(C)=O)CO[C@@H]1C[C@@H]2O + COC1C(OC(N)=O)C(O)C(Oc2ccc3c(O)c(NC(=O)c4ccc(O)c(CC=C(C)C)c4)c(=O)oc3c2C)OC1(C)C
IC50 (second compound 0.0316 µM): > 3 µM | IC50 (second compound 0.1 µM): > 3 µM | IC50 (second compound 0.316 µM): > 3 µM | IC50 (second compound 1 µM): > 3 µM | IC50 (second compound 3.16 µM): > 3 µM | IC50 (second compound 10 µM): > 3 µM | viability, T/C (second compound 0.0316 µM, first compound 0.00949 µM): 94.1% | viability, T/C (second compound 0.0316 µM, first compound 0.03 µM): 76.3% | viability, T/C (second compound 0.0316 µM, first compound 0.0949 µM): 65.2% | viability, T/C (second compound 0.0316 µM, first compound 0.3 µM): 58% | viability, T/C (second compound 0.0316 µM, first compound 0.949 µM): 62.3% | viability, T/C (second compound 0.0316 µM, first compound 3 µM): 51.4% | viability, T/C (second compound 0.1 µM, first compound 0.00949 µM): 89.5% | viability, T/C (second compound 0.1 µM, first compound 0.03 µM): 80.9% | viability, T/C (second compound 0.1 µM, first compound 0.0949 µM): 62.8% | viability, T/C (second compound 0.1 µM, first compound 0.3 µM): 49.9% | viability, T/C (second compound 0.1 µM, first compound 0.949 µM): 60.1% | viability, T/C (second compound 0.1 µM, first compound 3 µM): 59% | viability, T/C (second compound 0.316 µM, first compound 0.00949 µM): 75.5% | viability, T/C (second compound 0.316 µM, first compound 0.03 µM): 74.7% | viability, T/C (second compound 0.316 µM, first compound 0.0949 µM): 63.6% | viability, T/C (second compound 0.316 µM, first compound 0.3 µM): 58.2% | viability, T/C (second compound 0.316 µM, first compound 0.949 µM): 48.4% | viability, T/C (second compound 0.316 µM, first compound 3 µM): 63.4% | viability, T/C (second compound 1 µM, first compound 0.00949 µM): 81.4% | viability, T/C (second compound 1 µM, first compound 0.03 µM): 70% | viability, T/C (second compound 1 µM, first compound 0.0949 µM): 55.9% | viability, T/C (second compound 1 µM, first compound 0.3 µM): 53.1% | viability, T/C (second compound 1 µM, first compound 0.949 µM): 62% | viability, T/C (second compound 1 µM, first compound 3 µM): 51.8% | viability, T/C (second compound 3.16 µM, first compound 0.00949 µM): 86.5% | viability, T/C (second compound 3.16 µM, first compound 0.03 µM): 72.2% | viability, T/C (second compound 3.16 µM, first compound 0.0949 µM): 67% | viability, T/C (second compound 3.16 µM, first compound 0.3 µM): 57.6% | viability, T/C (second compound 3.16 µM, first compound 0.949 µM): 67% | viability, T/C (second compound 3.16 µM, first compound 3 µM): 54.7% | viability, T/C (second compound 10 µM, first compound 0.00949 µM): 94.6% | viability, T/C (second compound 10 µM, first compound 0.03 µM): 73.4% | viability, T/C (second compound 10 µM, first compound 0.0949 µM): 64.9% | viability, T/C (second compound 10 µM, first compound 0.3 µM): 52.1% | viability, T/C (second compound 10 µM, first compound 0.949 µM): 51.8% | viability, T/C (second compound 10 µM, first compound 3 µM): 60.4%

COc1cc(C2c3cc4c(cc3C(OC3OC5COC(C)OC5C(O)C3O)C3COC(=O)C23)OCO4)cc(OC)c1O (centres undefined) + COC1C(OC(N)=O)C(O)C(Oc2ccc3c(O)c(NC(=O)c4ccc(O)c(CC=C(C)C)c4)c(=O)oc3c2C)OC1(C)C
IC50 (second compound 0.0316 µM): > 10 µM | IC50 (second compound 0.1 µM): > 10 µM | IC50 (second compound 0.316 µM): > 10 µM | IC50 (second compound 1 µM): > 10 µM | IC50 (second compound 3.16 µM): > 10 µM | IC50 (second compound 10 µM): > 10 µM | viability, T/C (second compound 0.0316 µM, first compound 0.0316 µM): 86.8% | viability, T/C (second compound 0.0316 µM, first compound 0.1 µM): 79% | viability, T/C (second compound 0.0316 µM, first compound 0.316 µM): 78.1% | viability, T/C (second compound 0.0316 µM, first compound 1 µM): 78.4% | viability, T/C (second compound 0.0316 µM, first compound 3.16 µM): 70.1% | viability, T/C (second compound 0.0316 µM, first compound 10 µM): 56.2% | viability, T/C (second compound 0.1 µM, first compound 0.0316 µM): 95% | viability, T/C (second compound 0.1 µM, first compound 0.1 µM): 80.6% | viability, T/C (second compound 0.1 µM, first compound 0.316 µM): 83.1% | viability, T/C (second compound 0.1 µM, first compound 1 µM): 62.7% | viability, T/C (second compound 0.1 µM, first compound 3.16 µM): 57.5% | viability, T/C (second compound 0.1 µM, first compound 10 µM): 57.7% | viability, T/C (second compound 0.316 µM, first compound 0.0316 µM): 88.2% | viability, T/C (second compound 0.316 µM, first compound 0.1 µM): 98.7% | viability, T/C (second compound 0.316 µM, first compound 0.316 µM): 75.7% | viability, T/C (second compound 0.316 µM, first compound 1 µM): 79.3% | viability, T/C (second compound 0.316 µM, first compound 3.16 µM): 66% | viability, T/C (second compound 0.316 µM, first compound 10 µM): 64.6% | viability, T/C (second compound 1 µM, first compound 0.0316 µM): 84.1% | viability, T/C (second compound 1 µM, first compound 0.1 µM): 85.8% | viability, T/C (second compound 1 µM, first compound 0.316 µM): 79% | viability, T/C (second compound 1 µM, first compound 1 µM): 61.6% | viability, T/C (second compound 1 µM, first compound 3.16 µM): 70.9% | viability, T/C (second compound 1 µM, first compound 10 µM): 55.6% | viability, T/C (second compound 3.16 µM, first compound 0.0316 µM): 82% | viability, T/C (second compound 3.16 µM, first compound 0.1 µM): 88.4% | viability, T/C (second compound 3.16 µM, first compound 0.316 µM): 83.2% | viability, T/C (second compound 3.16 µM, first compound 1 µM): 80.2% | viability, T/C (second compound 3.16 µM, first compound 3.16 µM): 71.2% | viability, T/C (second compound 3.16 µM, first compound 10 µM): 60.9% | viability, T/C (second compound 10 µM, first compound 0.0316 µM): 81.8% | viability, T/C (second compound 10 µM, first compound 0.1 µM): 75.3% | viability, T/C (second compound 10 µM, first compound 0.316 µM): 78.1% | viability, T/C (second compound 10 µM, first compound 1 µM): 74.9% | viability, T/C (second compound 10 µM, first compound 3.16 µM): 68.8% | viability, T/C (second compound 10 µM, first compound 10 µM): 55%
